Test systems include Escherichia coli JW0013; Salmonella typhimurium; Escherichia coli; Bacillus subtilis; Staphylococcus aureus.
Assay in all cases: ≥ marks a high value that may be exact or a test limit, other limits are often not marked, values filed in µg/mL are converted to µM
Assay [1] deals with Bacillus subtilis KCTC 3068.
For assay [2], the system named is Staphylococcus epidermidis KCTC 1917.
Assay [3] concerns Escherichia coli KCTC 1682.
Assay [4] deals with Salmonella typhimurium KCTC 1926.
The subject of assay [5] is Pseudomonas aeruginosa KCTC 1637.
Assay [6] relates to Staphylococcus aureus KCTC 1621.
Assay [7] deals with Staphylococcus aureus ATCC 33591.
Assay [8] concerns Escherichia coli ATCC 25922.
The subject of assay [9] is Staphylococcus aureus USA 300.
Assay [10] deals with Klebsiella pneumoniae ATCC 13883.
In assay [11] the test system is Pseudomonas aeruginosa PAO1.

≈ marks a conversion by molar mass, not a printed value.

As a reminder, the MIC is the lowest concentration that inhibits growth of the organism. In the assay with Escherichia coli JW0013, `CC[C@H](C)[C@H](NC(=O)[C@H](CCCN=C(N)N)NC(=O)[C@H](CCCN=C(N)N)NC(=O)[C@@H]1CCCN1C(=O)[C@@H]1CCCN1C(=O)[C@H](CCCN=C(N)N)NC(=O)[C@H](CCCN=C(N)N)NC(=O)[C@H](CCCN=C(N)N)NC(=O)[C@@H]1CCCN1C(=O)[C@H](CC(C)C)NC(=O)[C@H](Cc1ccc(O)cc1)NC(=O)[C@H](Cc1cnc[nH]1)NC(=O)[C@H](CCCCN)NC(=O)[C@H](CCCCN)NC(=O)[C@H](CC(=O)O)NC(=O)[C@@H](N)C(C)C)C(=O)N[C@@H](Cc1ccc(O)cc1)C(=O)N[C@@H](CC(N)=O)C(=O)N[C@@H](CCCN=C(N)N)C(N)=O` [VDKKHYLPRRRPPRRIYNR] had a minimum inhibitory concentration (MIC) of 0.952 µM (≈ 2.4 µg/mL).

With `CC[C@H](C)[C@H](N)C(=O)NCC(=O)N[C@@H](CCCCN)C(=O)N[C@@H](CC(C)C)C(=O)N[C@@H](Cc1ccccc1)C(=O)N[C@@H](CCCCN)C(=O)N[C@@H](CCCN=C(N)N)C(=O)N[C@H](C(=O)N[C@H](C(=O)N[C@@H](CCCCN)C(=O)N[C@@H](CCCN=C(N)N)C(=O)N[C@H](C(=O)N[C@@H](CC(C)C)C(=O)N[C@@H](CCCCN)C(=O)N[C@@H](Cc1ccccc1)C(=O)N[C@@H](CC(C)C)C(=O)N[C@@H](CCCN=C(N)N)C(=O)N[C@@H](CCCCN)C(=O)N[C@@H](CC(C)C)C(=O)O)[C@@H](C)CC)C(C)C)[C@@H](C)CC` [IGKLFKRIVKRILKFLRKL], the MIC came out at 2 µM (≈ 4.74 µg/mL) in [1]; 4 µM (≈ 9.48 µg/mL) in assay [2]; 8 µM (≈ 19 µg/mL) in [3]; 4 µM (≈ 9.48 µg/mL) in assay [4]; 8 µM (≈ 19 µg/mL) in [5]; 4 µM (≈ 9.48 µg/mL) in assay [6].

In the case of `CC[C@H](C)[C@H](NC(=O)[C@H](CCCN=C(N)N)NC(=O)[C@@H](NC(=O)[C@@H](NC(=O)[C@@H](NC(=O)CN)C(C)C)C(C)C)C(C)C)C(=O)NCC(=O)N[C@@H](CCCN=C(N)N)C(=O)N[C@H](C(=O)N[C@H](C(=O)N[C@H](C(=O)N[C@@H](CCCN=C(N)N)C(=O)NCC(=O)N[C@H](C(=O)N[C@@H](CCCN=C(N)N)C(=O)N[C@@H](CCCN=C(N)N)C(N)=O)C(C)C)C(C)C)[C@@H](C)CC)C(C)C` [GVVVRIGRVIVRGVRR], the MIC in the assay with Salmonella typhimurium is 4 µM (≈ 7.16 µg/mL); in the assay with Escherichia coli, 8 µM (≈ 14.3 µg/mL); in the assay with Bacillus subtilis, 4 µM (≈ 7.16 µg/mL); in the assay on Staphylococcus aureus, 8 µM (≈ 14.3 µg/mL).

With `CSCC[C@H](NC(=O)[C@H](CCCN=C(N)N)NC(=O)[C@H](CCCN=C(N)N)NC(=O)[C@H](CC(N)=O)NC(=O)[C@H](CCC(N)=O)NC(=O)[C@@H](N)Cc1ccccc1)C(=O)N[C@@H](CCCCN)C(=O)N[C@@H](Cc1c[nH]c2ccccc12)C(=O)N[C@@H](CCCCN)C(=O)N[C@@H](CCCCN)C(N)=O` [FQNRRMKWKK], the minimum inhibitory concentration (MIC) is no less than 256 µM in [7] and greater than 256 µM in assay [8].

For `CC[C@H](C)[C@H](NC(=O)[C@H](CC(C)C)NC(=O)[C@@H](N)CC(C)C)C(=O)N[C@H](C(=O)N[C@@H](CC(C)C)C(=O)N[C@@H](CCCN=C(N)N)C(=O)N[C@@H](CCCN=C(N)N)C(=O)N[C@@H](CCCN=C(N)N)C(=O)N[C@@H](Cc1c[nH]c2ccccc12)C(=O)N[C@@H](CCCN=C(N)N)C(=O)N[C@@H](CCCN=C(N)N)C(=O)N[C@@H](CCC(N)=O)C(=O)N[C@@H](C)C(=O)N[C@@H](CCCN=C(N)N)C(=O)N[C@@H](C)C(=O)N[C@@H](CCCN=C(N)N)C(=O)N[C@@H](CO)C(=O)N[C@@H](CCCN=C(N)N)C(N)=O)[C@@H](C)CC` [LLIILRRRWRRQARARSR], the MIC in assay [1] turned out to be 4 µM (≈ 9.5 µg/mL); in [2], 8 µM (≈ 19 µg/mL); in [3] it was 8 µM (≈ 19 µg/mL); in assay [4] it was 4 µM (≈ 9.5 µg/mL); in [5], 8 µM (≈ 19 µg/mL); in assay [6], 4 µM (≈ 9.5 µg/mL).

`CC[C@H](C)[C@H](NC(=O)[C@H](CCCN=C(N)N)NC(=O)[C@H](CCCN=C(N)N)NC(=O)[C@@H]1CCCN1C(=O)[C@@H]1CCCN1C(=O)[C@H](CCCN=C(N)N)NC(=O)[C@H](CCCCN)NC(=O)[C@H](CCCN=C(N)N)NC(=O)[C@@H]1CCCN1C(=O)[C@H](CC(C)C)NC(=O)[C@H](Cc1ccc(O)cc1)NC(=O)[C@H](Cc1cnc[nH]1)NC(=O)[C@H](CCCCN)NC(=O)[C@H](CCCCN)NC(=O)[C@H](CC(=O)O)NC(=O)[C@@H](N)C(C)C)C(=O)N[C@@H](Cc1ccc(O)cc1)C(=O)N[C@@H](CC(N)=O)C(=O)N[C@@H](CCCN=C(N)N)C(N)=O` [VDKKHYLPRKRPPRRIYNR] showed a minimal inhibitory concentration (MIC) in the assay on Escherichia coli JW0013 of 0.682 µM (≈ 1.7 µg/mL).

As to `CC[C@H](C)[C@H](NC(=O)[C@H](Cc1c[nH]c2ccccc12)NC(=O)[C@H](CCCN=C(N)N)NC(=O)[C@@H](NC(=O)[C@@H](NC(=O)[C@H](CCCN=C(N)N)NC(=O)[C@H](CCCCN)NC(=O)[C@@H](N)Cc1c[nH]c2ccccc12)[C@@H](C)CC)C(C)C)C(=O)N[C@@H](CCCCN)C(=O)N[C@@H](CCCN=C(N)N)C(=O)N[C@@H](Cc1c[nH]c2ccccc12)C(=O)N[C@@H](CC(C)C)C(=O)N[C@@H](CCCN=C(N)N)C(N)=O` [WKRIVRWIKRWLR], the MIC in assay [1] stood at 4 µM (≈ 7.58 µg/mL); in assay [2], 8 µM (≈ 15.2 µg/mL); in assay [3], 8 µM (≈ 15.2 µg/mL); in [4] it was 4 µM (≈ 7.58 µg/mL); in assay [5] it was 4 µM (≈ 7.58 µg/mL); in [6], 2 µM (≈ 3.79 µg/mL).

Regarding `CC(C)C[C@H](NC(=O)[C@H](CC(C)C)NC(=O)[C@H](CCCCN)NC(=O)CNC(=O)[C@H](CC(C)C)NC(=O)[C@H](CC(C)C)NC(=O)[C@H](CC(C)C)NC(=O)[C@H](CC(C)C)NC(=O)[C@H](CO)NC(=O)[C@H](CO)NC(=O)[C@H](CC(C)C)NC(=O)[C@H](CC(C)C)NC(=O)CN)C(N)=O` [GLLSSLLLLGKLL], the minimum inhibitory concentration (MIC) in assay [9] is 3.1 µM (≈ 4.15 µg/mL); in [10] it was 25 µM (≈ 33.5 µg/mL); in [8] it was greater than 25 µM; in assay [11] it was greater than 25 µM.

With `CC[C@H](C)[C@H](NC(=O)[C@H](CC(C)C)NC(=O)[C@@H](N)CC(C)C)C(=O)N[C@H](C(=O)N[C@@H](CC(C)C)C(=O)N[C@@H](CCCN=C(N)N)C(=O)N[C@@H](CCCN=C(N)N)C(=O)N[C@@H](CCCN=C(N)N)C(=O)N[C@@H](Cc1c[nH]c2ccccc12)C(=O)N[C@@H](CCCN=C(N)N)C(=O)N[C@@H](CCCCN)C(=O)N[C@@H](CCC(N)=O)C(=O)N[C@@H](C)C(=O)N[C@@H](CCCN=C(N)N)C(=O)N[C@@H](C)C(=O)N[C@@H](CCCN=C(N)N)C(=O)N[C@@H](CO)C(=O)N[C@@H](CCCCN)C(N)=O)[C@@H](C)CC` [LLIILRRRWRKQARARSK], the minimal inhibitory concentration (MIC) amounted to 4 µM (≈ 9.28 µg/mL) in [1]; 8 µM (≈ 18.6 µg/mL) in assay [2]; 8 µM (≈ 18.6 µg/mL) in assay [3]; 4 µM (≈ 9.28 µg/mL) in [4]; 8 µM (≈ 18.6 µg/mL) in assay [5]; 4 µM (≈ 9.28 µg/mL) in assay [6].

`CC[C@H](C)[C@H](NC(=O)[C@H](CC(C)C)NC(=O)[C@@H](N)CC(C)C)C(=O)N[C@H](C(=O)N[C@@H](CC(C)C)C(=O)N[C@@H](CCCCN)C(=O)N[C@@H](CCCCN)C(=O)N[C@@H](CCCCN)C(=O)N[C@@H](Cc1c[nH]c2ccccc12)C(=O)N[C@@H](CCCCN)C(=O)N[C@@H](CCCCN)C(=O)N[C@@H](CCC(N)=O)C(=O)N[C@@H](C)C(=O)N[C@@H](CCCCN)C(=O)N[C@@H](C)C(=O)N[C@@H](CCCCN)C(=O)N[C@@H](CO)C(=O)N[C@@H](CCCCN)C(N)=O)[C@@H](C)CC` [LLIILKKKWKKQAKAKSK]: the MIC was 4 µM (≈ 8.61 µg/mL) in [1]; 8 µM (≈ 17.2 µg/mL) in assay [2]; 8 µM (≈ 17.2 µg/mL) in assay [3]; 4 µM (≈ 8.61 µg/mL) in assay [4]; 8 µM (≈ 17.2 µg/mL) in assay [5]; 4 µM (≈ 8.61 µg/mL) in [6].

(Values after DBAASP.)
